Drawing on US20260317357A1, “HETEROCYCLIC COMPOUNDS AS STING AGONISTS” (LigaChem Biosciences Inc., priority 2022, published 2026), this text covers EC50 for 26 molecules.

T1 sequence (Q86WV6 whole entry H232R): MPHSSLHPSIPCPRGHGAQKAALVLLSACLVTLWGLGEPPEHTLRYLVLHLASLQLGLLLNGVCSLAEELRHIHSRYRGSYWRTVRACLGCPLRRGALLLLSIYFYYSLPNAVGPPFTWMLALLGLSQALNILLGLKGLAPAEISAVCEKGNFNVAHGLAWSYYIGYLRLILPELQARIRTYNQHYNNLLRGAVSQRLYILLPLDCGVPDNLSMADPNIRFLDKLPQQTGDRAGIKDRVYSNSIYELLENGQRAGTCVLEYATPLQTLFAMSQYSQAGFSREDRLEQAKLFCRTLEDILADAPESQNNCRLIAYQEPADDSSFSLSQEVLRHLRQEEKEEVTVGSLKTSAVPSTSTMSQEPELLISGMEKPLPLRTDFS

One experiment has as its target T1, hSTING-R232 (Homo sapiens, UniProt Q86WV6, H232R).
T1 construct: host or cells: THP1 Dual KI-hSTING-R232 (STING HAQ gene removed, R232 variant gene introduced)
The experiment in a line: STING agonist activity, THP1 Dual KI-hSTING-R232 IRF luciferase reporter cells. The format is cell-based. To be noted: 24 hours. The method, then: In order to evaluate the activity of the STING agonist, reporter cells from Invivogen were used. The cell lines used in the experiment were THP1 Dual™ (InvivoGen #thpd-nfis) expressing the endogenous STING variant HAQ and THP1 Dual™ KI-hSTING-R232 (InvivoGen #thpd-r232/h232) into which the STING R232 or H232 variant gene was injected after removing the STING HAQ gene. The cell lines have a luciferase reporter gene inserted below the IFN regulatory factor (IRF) promoter, and thus the activity of the IFN regulatory factor (IRF) mechanism can be evaluated through luciferase expression.
The reporter cells were plated at 9.0×10^4 cells/100 μL per well in a 96-well plate using RPMI 1640 medium (Gibco, #22400097) supplemented with 10% heat-inactivated FBS and 1×Antibiotic-Antimycotic (Gibco, #15240062), 10 μg/mL blasticidin (Gibco, #A1113902), and 100 μg/mL Zeocin (Gibco, #R25005). The plated cells were cultured at 37° C., 5% CO2 for 24 hours, and then treated with 100 μL of the serially diluted compound in each well, and then cultured at 37° C., 5% CO2 for 24 hours. After culturing, 20 μL of the cell culture medium was transferred to a 96 well white plate, and QUANTI-Luc™ (InvivoGen #rep-qlcl) was added at 50 µL/well. Using a microplate reader (Perkin Elmer), the value of the luminescence signal increased in the experimental group treated with the drug compared to the control group not treated with the drug was calculated. EC50 values were derived according to the concentration of the compound using GraphPad Prism.
Background: In a reporter assay the amount or activity of a reporter protein is the signal.
`CCn1nc(C)cc1C(=O)Nc1nc2cc(C(N)=O)cc(OC)c2n1C/C=C/Cn1c(NC(=O)c2cc(C)nn2CC)nc2cc(C(N)=O)cc(OC/C=C/CN3CCNCC3)c21` [Compound 23]: the midpoint of the response, the EC50, lay at 6.43 nM. This lies in the single-digit nanomolar range. As to `CCn1nc(C)cc1C(=O)Nc1nc2cc(C(N)=O)cc(O)c2n1C/C=C/Cn1c(NC(=O)c2cc(C)nn2CC)nc2cc(C(N)=O)cc(OC/C=C/Cn3cc(N)cn3)c21` [Compound 69], the EC50 (as a rule, the midpoint of the concentration-response curve) is 0.85 nM.

As to `CCc1nc(C)oc1C(=O)Nc1nc2cc(C(N)=O)cc(OC/C=C/Cn3cc(N)cn3)c2n1C/C=C/Cn1c(NC(=O)c2cc(C)nn2CC)nc2cc(C(N)=O)cc(OC)c21` [Compound 151], a half-maximal effect (EC50) was put at 2.21 nM. Still for that read-out and setting: as for `CCn1nc(C)cc1C(=O)Nc1nc2cc(C(N)=O)cc(OC)c2n1C/C=C/Cn1c(NC(=O)c2cc(C)nn2CC)nc2cc(C(N)=O)cc(OCC#CCN3CCOCC3)c21` [Compound 48], the figure is 0.69 nM; as for `CCc1nc(C)oc1C(=O)Nc1nc2cc(C(N)=O)cc(OC/C=C/Cn3cc(N)cn3)c2n1C/C=C/Cn1c(NC(=O)c2cc(C)nn2CC)nc2cc(C(N)=O)cc(OC)c21` [Compound 222], 2.72 nM; as for `CCn1nc(C)cc1C(=O)Nc1nc2cc(C(N)=O)cc(OC)c2n1C/C=C/Cn1c(NC(=O)c2cc(C)nn2CC)nc2cc(C(N)=O)cc(OC/C=C/CNC(=O)N3CCNCC3)c21` [Compound 147], 4.03 nM.

As for `CCn1nc(C)cc1C(=O)Nc1nc2cc(C(N)=O)cc(OC)c2n1C/C=C/Cn1c(NC(=O)c2cc(C)nn2CC)nc2cc(C(N)=O)cc(OC/C=C/Cn3cc(CN)nn3)c21` [Compound 139], it took 2.25 nM to reach a half-maximal effect (EC50).

`CCn1nc(C)cc1C(=O)Nc1nc2cc(C(N)=O)cc(OC)c2n1C/C=C/Cn1c(NC(=O)c2cc(C)nn2CC)nc2cc(C(N)=O)cc(OCC#CCn3cc(N)cn3)c21` [Compound 178] gave an EC50 of 0.7 nM.

As for `CCn1nc(C)cc1C(=O)Nc1nc2cc(C(N)=O)cc(OC)c2n1C/C=C/Cn1c(NC(=O)c2cc(C)nn2CC)nc2cc(C(N)=O)cc(OC/C=C/CC3CCNCC3)c21` [Compound 89], a half-maximal response (EC50) required 6.97 nM. In turn, `CCn1nc(C)cc1C(=O)Nc1nc2cc(C(N)=O)cc(OC)c2n1C/C=C/Cn1c(NC(=O)c2cc(C)nn2CC)nc2cc(C(N)=O)cc(OC/C=C/[C@@H]3CCCN3)c21` [Compound 120] gave an EC50 of 2.25 nM.

Regarding `CCn1nc(C)cc1C(=O)Nc1nc2cc(C(N)=O)cc(OC)c2n1C/C=C/Cn1c(NC(=O)c2cc(C)nn2CC)nc2cc(C(N)=O)cc(OC/C=C/Cn3cc(N)c(C(=O)O)n3)c21` [Compound 164], the EC50 stood at 1.04 nM. The molecule `CCn1nc(C)cc1C(=O)Nc1nc2cc(C(N)=O)cc(OC)c2n1C/C=C/Cn1c(NC(=O)c2cc(C)nn2CC)nc2cc(C(N)=O)cc(OC/C=C/Cn3ncc(CN)n3)c21` [Compound 110] came in with an EC50 of 1.36 nM. Molecule `CCn1nc(C)cc1C(=O)Nc1nc2cc(C(N)=O)cc(OC)c2n1C/C=C/Cn1c(NC(=O)c2cc(C)nn2CC)nc2cc(C(N)=O)cc(OC/C=C/COC(=O)N(C)CCNC)c21` [Compound 221] yielded an EC50 of 3.48 nM.

`CCn1nc(C)cc1C(=O)Nc1nc2cc(C(N)=O)cc(OC)c2n1C/C=C/Cn1c(NC(=O)c2cc(C)nn2CC)nc2cc(C(N)=O)cc(OC/C=C\CN3CCNCC3=O)c21` [Compound 43] gave an EC50 of 2.81 nM. `CCn1nc(C)cc1C(=O)Nc1nc2cc(C(N)=O)cc(OC/C=C/Cn3cc(N)cn3)c2n1C/C=C/Cn1c(NC(=O)c2cc(C)nn2CC)nc2cc(C(N)=O)cc(OCCCS(C)(=N)=O)c21` (stereo not shown) [Compound 197]: the EC50 amounted to 8.13 nM. Against the preceding molecule, the EC50 is about 2.9-fold higher. For `CCc1nc(C)sc1C(=O)Nc1nc2cc(C(N)=O)cc(OC/C=C/Cn3cc(N)cn3)c2n1C/C=C/Cn1c(NC(=O)c2cc(C)nn2CC)nc2cc(C(N)=O)cc(OC)c21` [Compound 155], the EC50 is 2.6 nM. For `CCn1nc(C)cc1C(=O)Nc1nc2cc(C(N)=O)cc(OC)c2n1C/C=C/Cn1c(NC(=O)c2cc(C)nn2CC)nc2cc(C(N)=O)cc(OC/C=C/Cn3cc(N)c(C(=O)OC)n3)c21` [Compound 163], it took 0.96 nM to reach a half-maximal effect (EC50). Molecule `CCn1nc(C)cc1C(=O)Nc1nc2cc(C(N)=O)cc(OC)c2n1C/C=C/Cn1c(NC(=O)c2cc(C)nn2CC)nc2cc(C(N)=O)cc(OC/C=C/CNC(=N)N)c21` [Compound 166] returned an EC50 of 1.17 nM. The EC50 values of the last two molecules are within 1.5-fold of each other. Turning to `CCn1nc(C)cc1C(=O)Nc1nc2cc(C(N)=O)cc(OC)c2n1C/C=C/Cn1c(NC(=O)c2cc(C)nn2CC)nc2cc(C(N)=O)cc(OCCCS(C)(=N)=O)c21` (stereo not shown) [Compound 187], the EC50 stood at 4.13 nM.

On to `CCn1nc(C)cc1C(=O)Nc1nc2cc(C(N)=O)cc(OC)c2n1C/C=C/Cn1c(NC(=O)c2cc(C)nn2CC)nc2cc(C(N)=O)cc(OC/C=C/CN)c21` [Compound 145], for which the EC50 came to 2.23 nM. Regarding `CCn1nc(C)cc1C(=O)Nc1nc2cc(C(N)=O)cc(OC)c2n1C/C=C/Cn1c(NC(=O)c2cc(C)nn2CC)nc2cc(C(N)=O)cc(OC/C=C/CN3CCOCC3)c21` [Compound 13], the EC50 stood at 0.54 nM. On to `CCn1nc(C)cc1C(=O)Nc1nc2cc(C(N)=O)cc(OC)c2n1C/C=C/Cn1c(NC(=O)c2cc(C)nn2CC)nc2cc(C(N)=O)cc(OC/C=C/COc3cccc(N)c3)c21` [Compound 95], for which the EC50 worked out at 1.75 nM. `CCn1nc(C)cc1C(=O)Nc1nc2cc(C(N)=O)cc(OC)c2n1C/C=C/Cn1c(NC(=O)c2cc(C)nn2CC)nc2cc(C(N)=O)cc(OC/C=C\CN3CCOCC3)c21` [Compound 33] came in with an EC50 of 0.93 nM. `CCn1nc(C)cc1C(=O)Nc1nc2cc(C(N)=O)cc(OC)c2n1C/C=C/Cn1c(NC(=O)c2cc(C)nn2CC)nc2cc(C(N)=O)cc(OC/C=C/Cn3cc(NCCC(=O)O)cn3)c21` [Compound 175]: the response was half-maximal at 3.96 nM (EC50). The molecule `CCn1nc(C)cc1C(=O)Nc1nc2cc(C(N)=O)cc(OC)c2n1C/C=C/Cn1c(NC(=O)c2cc(C)nn2CC)nc2cc(C(N)=O)cc(OC/C=C/Cn3ncc4cc(N)ccc43)c21` [Compound 127] came in with an EC50 of 0.47 nM.

As for `CCn1nc(C)cc1C(=O)Nc1nc2cc(C(N)=O)cc(OC)c2n1C/C=C/Cn1c(NC(=O)c2cc(C)nn2CC)nc2cc(C(N)=O)cc(OC/C=C\CN3CCC(N)CC3)c21` [Compound 38], the EC50 was determined as 10.3 nM.

In a further experiment the target is T2, human STING (Homo sapiens, UniProt Q86WV6).
T2 construct: purchased Cisbio #64BDSTGPEG
T2 sequence (Q86WV6 whole entry): as the sequence (Q86WV6 whole entry H232R) above, with R232H counted along it
Kind of experiment: Direct binding potency, HUMAN STING WT BINDING KIT (Cisbio). To be noted: in vitro. The text has this: Additionally, or analysis of direct binding potency of STING agonist compounds described herein to human STING, HUMAN STING WT BINDING KIT (Cisbio, #64BDSTGPEG) was used according to the manufacturer's instruction.
`CCc1nc(C)oc1C(=O)Nc1nc2cc(C(N)=O)cc(OC/C=C/Cn3cc(N)cn3)c2n1C/C=C/Cn1c(NC(=O)c2cc(C)nn2CC)nc2cc(C(N)=O)cc(OC)c21` [Compound 151] gave an EC50 of 0.13 nM. This lies in the sub-nanomolar range. `CCc1nc(C)sc1C(=O)Nc1nc2cc(C(N)=O)cc(OC/C=C/Cn3cc(N)cn3)c2n1C/C=C/Cn1c(NC(=O)c2cc(C)nn2CC)nc2cc(C(N)=O)cc(OC)c21` [Compound 155] returned an EC50 of 0.4 nM.
